Measurements taken from ChEMBL document CHEMBL4177534, “Discovery and evaluation of 1H-pyrrolo[2,3-b]pyridine based selective and reversible small molecule BTK inhibitors for the treatment of rheumatoid arthritis” (Bioorg Med Chem Lett, 2017).
Values after ≈ are worked out from the molar mass of the structure shown.

Experiments:
[1] = biological target: cAMP-dependent protein kinase catalytic subunit alpha (Homo sapiens) (UniProt P17612); experiment: Inhibition of recombinant human full length N-terminal GST-tagged PKACalpha expressed in baculovirus infected Sf9 cells assessed as change in enzyme activity at 1 uM in presence of 1 uM ATP relative to control; design: scale not given: the % may be the effect or the level left
[2] = Equilibrium aqueous solubility of the compound at pH 7.4; type: physicochemical
[3] = biological target: Tyrosine-protein kinase Tec (Homo sapiens) (UniProt P42680); experiment: Inhibition of recombinant full length N-terminal GST-tagged TEC (unknown origin) expressed in baculovirus infected Sf9 cells assessed as change in enzyme activity at 1 uM in presence of 2 uM ATP relative to control; design: scale not given: the % may be the effect or the level left
[4] = Half life in mouse at 3 mg/kg, iv; type: ADME, organism-based; conditions: in vivo
[5] = biological target: Tyrosine-protein kinase BTK (Homo sapiens, UniProt Q06187); experiment: Inhibition of human BTK assessed as decrease in […] antibody stimulated BCR mediated CD69 upregulation in whole blood preincubated for 1 hr followed by antibody challenge after 4 hrs by flow cytometry
[6] = biological target: Serine/threonine-protein kinase 4 (Homo sapiens) (UniProt Q13043); experiment: Inhibition of recombinant human full length N-terminal GST-tagged MST1 expressed in baculovirus infected Sf9 cells assessed as change in enzyme activity at 1 uM in presence of 1 uM ATP relative to control; design: scale not given: the % may be the effect or the level left
[7] = test system: Mus musculus; experiment: Antiarthritic activity in DBA/1J mouse type-2 collagen-induced arthritis model assessed as reduction in joint histological score immunized with type-2 collagen on day 1 and day 21 followed by LPS challenge on day 28 subsequent compound administration po bid by hematoxylin and eosin staining based assay; type: functional, organism-based
[8] = biological target: Calcium/calmodulin-dependent protein kinase type IV (Homo sapiens) (UniProt Q16566); experiment: Inhibition of recombinant human full length N-terminal GST-tagged CAMK4 expressed in baculovirus infected Sf9 cells assessed as change in enzyme activity at 1 uM in presence of 2 uM ATP relative to control; design: scale not given: the % may be the effect or the level left
[9] = biological target: Tyrosine-protein kinase JAK3 (Homo sapiens, UniProt P52333); experiment: Inhibition of recombinant human JAK3 (781 to 1124 residues) preincubated for 10 mins followed by poly-[Glu-Tyr(4:1) substrate addition after 60 mins in presence of ATP by Kinase-Glo assay
[10] = biological target: Tyrosine-protein kinase Blk (Homo sapiens) (UniProt P51451); experiment: Inhibition of recombinant human full length N-terminal GST-tagged BLK expressed in baculovirus infected Sf9 cells assessed as change in enzyme activity at 1 uM in presence of 1 uM ATP relative to control; design: scale not given: the % may be the effect or the level left
[11] = biological target: Cyclin-dependent kinase 1/Cyclin A1 (Homo sapiens) (UniProt P06493+P78396); experiment: Inhibition of recombinant human full length N-terminal GST-tagged CDK1/CyclinA1 expressed in baculovirus infected Sf9 cells assessed as change in enzyme activity at 1 uM in presence of 1 uM ATP relative to control; design: scale not given: the % may be the effect or the level left
[12] = biological target: Mitogen-activated protein kinase 14 (Homo sapiens) (UniProt Q16539); experiment: Inhibition of recombinant human full length N-terminal GST-tagged p38alpha expressed in baculovirus infected Sf9 cells assessed as change in enzyme activity at 1 uM in presence of 1 uM ATP relative to control; design: scale not given: the % may be the effect or the level left
[13] = Equilibrium aqueous solubility of the compound at pH 2.1; type: physicochemical
[14] = biological target: Tyrosine-protein kinase BTK (Mus musculus, UniProt P35991); experiment: Inhibition of mouse BTK assessed as decrease in anti-CD3epsilon antibody stimulated TCR mediated CD69 upregulation in whole blood preincubated for 1 hr followed by antibody challenge after 4 hrs by flow cytometry
[15] = test system: Mus musculus; experiment: Dose normalized AUC (0 to 24 hrs) in mouse at 10 mg/kg, po; type: ADME, organism-based; conditions: in vivo
[16] = biological target: Ephrin type-A receptor 3 (Homo sapiens) (UniProt P29320); experiment: Inhibition of recombinant human N-terminal GST-tagged EPHA3 (571 to end residues) expressed in baculovirus infected Sf9 cells assessed as change in enzyme activity at 1 uM in presence of 2 uM ATP relative to control; design: scale not given: the % may be the effect or the level left
[17] = test system: Mus musculus; experiment: Ex-vivo inhibition of BTK in C57BL/6J mouse assessed as anti-mouse IgD antibody stimulated BCR mediated CD69 level in whole blood isolated from 30 mg/kg, po bid treated mouse measured after 24 hrs post first dose by flow cytometry relative to control; type: functional; design: scale not given: the % may be the effect or the level left
[18] = biological target: Ribosomal protein S6 kinase (Homo sapiens) (UniProt P51812+Q9UBS0+O75676+Q15349+O75582+P23443+Q9UK32+Q15418); experiment: Inhibition of recombinant human full length N-terminal GST-tagged p70S6K expressed in baculovirus infected Sf9 cells assessed as change in enzyme activity at 1 uM in presence of 2 uM ATP relative to control; design: scale not given: the % may be the effect or the level left
[19] = biological target: Casein kinase I isoform alpha (Homo sapiens) (UniProt P48729); experiment: Inhibition of recombinant human full length N-terminal GST-tagged CK1alpha1 expressed in baculovirus infected Sf9 cells assessed as change in enzyme activity at 1 uM in presence of 1 uM ATP relative to control; design: scale not given: the % may be the effect or the level left
[20] = test system: Mus musculus; experiment: Ex-vivo inhibition of BTK in C57BL/6J mouse assessed as anti-mouse IgD antibody stimulated BCR mediated CD69 level in whole blood isolated from 10 to 100 mg/kg, po bid treated mouse measured after 2 hrs post first dose by flow cytometry relative to control; type: functional; design: scale not given: the % may be the effect or the level left
[21] = biological target: Epidermal growth factor receptor (Homo sapiens) (UniProt P00533); experiment: Inhibition of recombinant human N-terminal GST-tagged EGFR expressed in baculovirus infected Sf9 cells assessed as change in enzyme activity at 1 uM in presence of 1 uM ATP relative to control; design: scale not given: the % may be the effect or the level left
[22] = Volume of distribution at steady state in mouse at 3 mg/kg, iv; type: ADME, organism-based; conditions: in vivo, read-out: Vdss
[23] = biological target: Serine/threonine-protein kinase B-raf (Homo sapiens) (UniProt P15056); experiment: Inhibition of recombinant human full length N-terminal GST-tagged BRAF expressed in baculovirus infected Sf9 cells assessed as change in enzyme activity at 1 uM in presence of 1 uM ATP relative to control; design: scale not given: the % may be the effect or the level left
[24] = test system: Mus musculus; experiment: Ex-vivo inhibition of BTK in C57BL/6J mouse assessed as anti-mouse IgD antibody stimulated BCR mediated CD69 level in whole blood isolated from 30 mg/kg, po bid treated mouse measured after 6 hrs post first dose by flow cytometry relative to control; type: functional; design: scale not given: the % may be the effect or the level left
[25] = biological target: Serine/threonine-protein kinase VRK1 (Homo sapiens) (UniProt Q99986); experiment: Inhibition of recombinant human full length N-terminal GST-tagged VRK1 expressed in baculovirus infected Sf9 cells assessed as change in enzyme activity at 1 uM in presence of 2 uM ATP relative to control; design: scale not given: the % may be the effect or the level left
[26] = test system: Mus musculus; experiment: Ex-vivo inhibition of BTK in C57BL/6J mouse assessed as anti-mouse IgD antibody stimulated BCR mediated CD69 level in whole blood isolated from 10 mg/kg, po bid treated mouse measured after 2 hrs post first dose by flow cytometry relative to control; type: functional; design: scale not given: the % may be the effect or the level left
[27] = test system: Mus musculus; experiment: Ex-vivo inhibition of BTK in C57BL/6J mouse assessed as anti-mouse IgD antibody stimulated BCR mediated CD69 level in whole blood isolated from 100 mg/kg, po bid treated mouse measured after 2 hrs post first dose by flow cytometry relative to control; type: functional; design: scale not given: the % may be the effect or the level left

Serine/threonine-protein kinase 4 (Homo sapiens), sequence (Q13043 whole entry): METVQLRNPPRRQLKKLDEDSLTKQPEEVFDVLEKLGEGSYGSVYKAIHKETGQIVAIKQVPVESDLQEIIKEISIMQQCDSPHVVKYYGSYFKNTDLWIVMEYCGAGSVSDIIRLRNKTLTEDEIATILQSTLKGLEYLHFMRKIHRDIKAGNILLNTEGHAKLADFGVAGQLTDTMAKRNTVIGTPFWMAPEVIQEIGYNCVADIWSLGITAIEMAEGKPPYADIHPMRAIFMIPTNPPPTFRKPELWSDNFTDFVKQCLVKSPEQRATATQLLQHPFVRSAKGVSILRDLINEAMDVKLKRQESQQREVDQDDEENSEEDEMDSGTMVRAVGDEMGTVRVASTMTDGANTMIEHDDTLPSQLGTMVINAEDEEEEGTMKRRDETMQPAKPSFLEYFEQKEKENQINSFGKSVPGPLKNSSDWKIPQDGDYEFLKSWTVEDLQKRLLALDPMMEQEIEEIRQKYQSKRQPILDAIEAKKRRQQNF
Tyrosine-protein kinase Tec (Homo sapiens), sequence (P42680 whole entry): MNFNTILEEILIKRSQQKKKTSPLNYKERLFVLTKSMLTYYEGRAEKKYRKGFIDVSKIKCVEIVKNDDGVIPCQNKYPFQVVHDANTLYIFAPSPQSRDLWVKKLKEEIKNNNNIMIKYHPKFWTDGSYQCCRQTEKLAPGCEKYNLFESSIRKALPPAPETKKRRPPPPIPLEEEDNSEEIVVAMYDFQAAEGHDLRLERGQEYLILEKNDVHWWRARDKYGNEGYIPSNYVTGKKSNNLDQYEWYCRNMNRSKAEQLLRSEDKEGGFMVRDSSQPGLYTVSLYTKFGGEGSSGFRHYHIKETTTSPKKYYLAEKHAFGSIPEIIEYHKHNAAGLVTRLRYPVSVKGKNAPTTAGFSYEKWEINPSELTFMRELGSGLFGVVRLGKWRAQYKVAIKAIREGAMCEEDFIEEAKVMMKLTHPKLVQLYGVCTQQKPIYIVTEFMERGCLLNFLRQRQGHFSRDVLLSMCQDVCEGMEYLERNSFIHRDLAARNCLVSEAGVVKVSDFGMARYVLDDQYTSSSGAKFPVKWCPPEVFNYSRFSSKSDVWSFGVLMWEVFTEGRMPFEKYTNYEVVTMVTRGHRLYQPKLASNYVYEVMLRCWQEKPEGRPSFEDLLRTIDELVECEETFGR
Serine/threonine-protein kinase B-raf (Homo sapiens), sequence (P15056 whole entry): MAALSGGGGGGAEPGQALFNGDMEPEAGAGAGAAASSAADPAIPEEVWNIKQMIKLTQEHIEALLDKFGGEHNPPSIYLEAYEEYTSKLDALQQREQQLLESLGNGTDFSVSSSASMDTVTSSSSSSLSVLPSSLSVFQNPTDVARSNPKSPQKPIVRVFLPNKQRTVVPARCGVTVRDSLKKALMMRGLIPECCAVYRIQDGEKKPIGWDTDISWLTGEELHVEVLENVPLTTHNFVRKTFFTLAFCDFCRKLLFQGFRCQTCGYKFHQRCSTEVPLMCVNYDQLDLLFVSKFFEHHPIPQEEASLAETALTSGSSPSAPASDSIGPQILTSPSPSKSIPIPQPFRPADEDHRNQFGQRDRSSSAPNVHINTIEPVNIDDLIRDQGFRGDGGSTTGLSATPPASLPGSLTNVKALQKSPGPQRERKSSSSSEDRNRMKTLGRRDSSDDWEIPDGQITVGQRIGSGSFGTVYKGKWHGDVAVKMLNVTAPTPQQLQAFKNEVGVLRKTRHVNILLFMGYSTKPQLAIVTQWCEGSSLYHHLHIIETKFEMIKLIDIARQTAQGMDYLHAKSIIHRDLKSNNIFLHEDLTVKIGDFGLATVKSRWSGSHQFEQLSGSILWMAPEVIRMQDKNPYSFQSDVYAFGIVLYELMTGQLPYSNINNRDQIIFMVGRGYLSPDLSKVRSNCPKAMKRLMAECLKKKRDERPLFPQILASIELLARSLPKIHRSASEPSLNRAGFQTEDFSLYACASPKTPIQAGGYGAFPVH
Serine/threonine-protein kinase VRK1 (Homo sapiens), sequence (Q99986 whole entry): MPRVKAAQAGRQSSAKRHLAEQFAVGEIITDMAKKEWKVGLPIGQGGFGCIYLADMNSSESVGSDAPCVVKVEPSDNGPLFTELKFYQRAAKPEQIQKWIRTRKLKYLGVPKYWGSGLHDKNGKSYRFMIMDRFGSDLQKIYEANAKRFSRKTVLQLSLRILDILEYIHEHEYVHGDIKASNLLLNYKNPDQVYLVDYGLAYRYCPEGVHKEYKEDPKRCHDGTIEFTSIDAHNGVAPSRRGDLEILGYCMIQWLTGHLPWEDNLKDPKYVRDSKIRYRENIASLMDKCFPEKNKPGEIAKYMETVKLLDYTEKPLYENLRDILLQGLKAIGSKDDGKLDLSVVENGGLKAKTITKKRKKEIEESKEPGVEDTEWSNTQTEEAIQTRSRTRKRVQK
Ephrin type-A receptor 3 (Homo sapiens), sequence (P29320 whole entry): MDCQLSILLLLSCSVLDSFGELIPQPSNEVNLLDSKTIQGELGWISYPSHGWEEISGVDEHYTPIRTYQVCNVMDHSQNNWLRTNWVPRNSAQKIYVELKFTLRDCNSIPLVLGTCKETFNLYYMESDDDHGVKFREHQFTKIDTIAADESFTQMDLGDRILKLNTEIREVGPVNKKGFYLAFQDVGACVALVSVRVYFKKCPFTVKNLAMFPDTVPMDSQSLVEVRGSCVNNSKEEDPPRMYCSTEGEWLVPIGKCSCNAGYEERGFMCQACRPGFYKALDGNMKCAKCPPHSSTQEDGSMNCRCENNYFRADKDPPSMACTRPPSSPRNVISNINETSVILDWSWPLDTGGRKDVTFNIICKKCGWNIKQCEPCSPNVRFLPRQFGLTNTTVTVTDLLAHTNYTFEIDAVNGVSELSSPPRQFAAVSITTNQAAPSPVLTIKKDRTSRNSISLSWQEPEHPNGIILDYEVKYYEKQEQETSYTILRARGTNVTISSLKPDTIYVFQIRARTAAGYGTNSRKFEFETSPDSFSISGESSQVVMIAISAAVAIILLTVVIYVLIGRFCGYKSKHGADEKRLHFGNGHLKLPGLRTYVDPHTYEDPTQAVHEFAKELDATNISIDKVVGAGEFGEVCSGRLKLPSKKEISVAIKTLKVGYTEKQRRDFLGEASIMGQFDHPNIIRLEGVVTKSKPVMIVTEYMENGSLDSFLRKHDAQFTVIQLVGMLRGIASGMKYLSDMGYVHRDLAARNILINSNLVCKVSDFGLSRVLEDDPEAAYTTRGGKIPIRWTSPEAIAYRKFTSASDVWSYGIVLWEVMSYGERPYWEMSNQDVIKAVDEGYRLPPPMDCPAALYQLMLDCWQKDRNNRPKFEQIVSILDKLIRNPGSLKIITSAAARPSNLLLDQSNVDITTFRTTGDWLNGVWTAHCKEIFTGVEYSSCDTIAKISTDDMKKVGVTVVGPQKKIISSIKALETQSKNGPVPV
Tyrosine-protein kinase BTK (Homo sapiens, UniProt Q06187), sequence (Q06187 whole entry): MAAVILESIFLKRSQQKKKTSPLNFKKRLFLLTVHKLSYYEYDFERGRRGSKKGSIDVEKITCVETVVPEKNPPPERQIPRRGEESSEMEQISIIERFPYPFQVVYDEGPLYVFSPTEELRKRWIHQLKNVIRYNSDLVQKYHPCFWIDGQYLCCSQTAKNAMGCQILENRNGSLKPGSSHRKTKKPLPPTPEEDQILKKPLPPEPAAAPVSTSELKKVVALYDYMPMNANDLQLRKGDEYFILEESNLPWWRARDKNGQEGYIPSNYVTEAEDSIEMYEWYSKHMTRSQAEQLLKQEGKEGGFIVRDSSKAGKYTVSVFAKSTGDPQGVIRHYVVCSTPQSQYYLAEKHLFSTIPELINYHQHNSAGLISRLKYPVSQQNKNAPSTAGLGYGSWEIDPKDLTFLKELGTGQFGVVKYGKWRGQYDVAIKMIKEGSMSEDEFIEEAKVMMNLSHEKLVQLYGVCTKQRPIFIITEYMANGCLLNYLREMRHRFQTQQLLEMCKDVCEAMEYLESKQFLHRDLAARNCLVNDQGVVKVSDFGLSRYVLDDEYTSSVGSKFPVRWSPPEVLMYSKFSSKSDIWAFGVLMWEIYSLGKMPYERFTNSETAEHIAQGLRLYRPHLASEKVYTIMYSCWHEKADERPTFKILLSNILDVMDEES
Mitogen-activated protein kinase 14 (Homo sapiens), sequence (Q16539 whole entry): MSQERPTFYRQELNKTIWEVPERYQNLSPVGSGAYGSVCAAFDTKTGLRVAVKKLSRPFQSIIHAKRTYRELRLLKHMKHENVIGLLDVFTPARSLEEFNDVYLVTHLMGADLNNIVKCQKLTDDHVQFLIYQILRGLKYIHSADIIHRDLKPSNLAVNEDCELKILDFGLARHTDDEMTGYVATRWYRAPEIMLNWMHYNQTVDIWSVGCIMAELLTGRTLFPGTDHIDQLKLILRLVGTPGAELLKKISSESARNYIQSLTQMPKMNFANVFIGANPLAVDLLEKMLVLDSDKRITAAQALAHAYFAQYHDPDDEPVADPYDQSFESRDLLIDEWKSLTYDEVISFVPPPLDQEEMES
Tyrosine-protein kinase Blk (Homo sapiens), sequence (P51451 2-505 limits assumed): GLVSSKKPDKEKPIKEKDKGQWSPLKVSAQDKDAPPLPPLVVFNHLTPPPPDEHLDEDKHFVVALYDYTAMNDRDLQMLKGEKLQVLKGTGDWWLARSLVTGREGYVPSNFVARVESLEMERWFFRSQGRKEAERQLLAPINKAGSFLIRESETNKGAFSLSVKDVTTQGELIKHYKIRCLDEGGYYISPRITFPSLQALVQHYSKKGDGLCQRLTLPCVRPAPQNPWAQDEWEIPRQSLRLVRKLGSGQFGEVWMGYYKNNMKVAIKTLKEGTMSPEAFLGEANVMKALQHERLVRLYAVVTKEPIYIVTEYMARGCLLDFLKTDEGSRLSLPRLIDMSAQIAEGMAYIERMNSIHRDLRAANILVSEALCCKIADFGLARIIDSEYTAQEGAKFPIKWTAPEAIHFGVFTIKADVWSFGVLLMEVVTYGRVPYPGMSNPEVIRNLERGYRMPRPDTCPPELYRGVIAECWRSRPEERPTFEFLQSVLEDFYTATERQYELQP

Row | Activity [1] [%] | solubility thermodynamic [2] [µM] | Activity [3] [%] | half-life [4] [h] | IC50 [5] [µM] | Activity [6] [%] | Activity [8] [%] | IC50 [9] [µM] | Activity [10] [%] | Activity [11] [%] | Activity [12] [%] | solubility thermodynamic [13] [µM] | IC50 [14] [µM] | AUC/dose [15] [µM·h] | Activity [16] [%] | Activity [18] [%] | Activity [19] [%] | Activity [21] [%] | SMILES | Activity [7] | Activity [17] [%] | also measured
1 | 0 | 31 (≈ 18 µg/mL) | -31 | 1.1 | 0.261 | 5 | 1 | > 10 | 3 | -3 | 4 | > 2000 | > 30 | 25.8 | -3 | -28 | 0 | -1 | O=C1c2c(F)cc(C3CC3)cc2OCCN1c1cccc(-c2ccnc3[nH]c(C4=CCN(C5COC5)CC4)cc23)c1CO | Dose-dependent effect | 9.5 | Activity [20]: >90%; Vd [22]: 0.6 L/kg; Activity [23]: -6%; Activity [24]: 56%; Activity [25]: -8%
2 | -2 | 15 (≈ 9.7 µg/mL) | -35 | 5.6 | 0.0835 | -3 | -5 | > 10 | 1 | 1 | -7 | > 2000 | 5.06 | 27 | -2 | 2 | -1 | 2 | CCN1CCN(Cc2ccc(-c3cc4c(-c5cccc(N6CCOc7cc(C8CC8)cc(F)c7C6=O)c5CO)ccnc4[nH]3)nc2)CC1 | Dose-dependent effect | 47 | Activity [26]: 48%; Vd [22]: 1.9 L/kg; Activity [27]: 72%; Activity [23]: 1%; Activity [24]: 81%; Activity [25]: 1%
